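Briefly, cells in 96-well plates were exposed to five compound concentrations for 48 h, and endpoints were estimated by linear interpolation. GI50: concentration for 50% inhibition of growth. TGI is the concentration that stops growth completely.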
Key:
Test in all cases: NCI tumour cell line growth inhibition, 48 h
MDA-MB-231 breast = test system: MDA-MB-231 breast
MDA-MB-435 = test system: MDA-MB-435
NCI/ADR-RES ovarian = test system: NCI/ADR-RES ovarian
PC-3 prostate = test system: PC-3 prostate

| SMILES | GI50 (MDA-MB-231 breast) | TGI (MDA-MB-231 breast) | GI50 (MDA-MB-435) | TGI (MDA-MB-435) | GI50 (NCI/ADR-RES ovarian) | TGI (NCI/ADR-RES ovarian) | GI50 (PC-3 prostate) | TGI (PC-3 prostate) |
| --- | --- | --- | --- | --- | --- | --- | --- | --- |
| NC(=O)c1cccc(Nc2nccc(Nc3cccc(F)c3)n2)c1 | 17500 nM | > 25 µM | 6150 nM | > 25 µM | 8.75 µM | > 25 µM | 8390 nM | > 25 µM |
| C[C@H]1[C@H](C)CC[C@]2(C(=O)NCCNCCN)CC[C@]3(C)C(=CC[C@@H]4[C@@]5(C)CCC(=O)C(C)(C)[C@@H]5CC[C@]43C)[C@H]12 | 1660 nM | 3.08 µM | 1730 nM | 3.23 µM | 5.16 µM | 20 µM | 1740 nM | 3.81 µM |
| CCCCCCCCCCN=C(c1ccc(N(C)C)cc1)c1ccc(N(C)C)cc1 | 876 nM | 23.9 µM | 72.6 nM | 0.332 µM | 0.406 µM | 42.4 µM | 2710 nM | > 86 µM |
| CN(C)Cc1c[nH]c2c(NCCN)c3c(c(NCCN)c12)C(=O)c1ccccc1C3=O | 949 nM | 2.86 µM | 1880 nM | 5.2 µM | 21.8 µM | > 66.1 µM | 2340 nM | 8.42 µM |
| CC(=O)N[C@H](C(=O)N[C@@H](CCCNC(=N)N)C(=O)N[C@@H](CCCCN)C(=O)N[C@@H](CCCNC(=N)N)C(=O)N[C@]1(C)CCCCCC/C=C\CCC[C@@](C)(C(=O)N[C@@H](CCCNC(=N)N)C(=O)N[C@@H](CCC(=O)O)C(=O)N[C@@H](CC(C)C)C(=O)N[C@H](C(=O)N[C@@H](CCC(=O)O)C(N)=O)C(C)C)NC(=O)[C@H](CCC(N)=O)NC(=O)[C@H](CC(C)C)NC(=O)[C@H](CC(C)C)NC(=O)[C@H](CCCNC(=N)N)NC(=O)[C@H](CCCNC(=N)N)NC(=O)[C@H](CC(C)C)NC1=O)C(C)C | 3680 nM | > 50 µM | 1420 nM | 4.28 µM | 6.82 µM | > 50 µM | 8240 nM | 23.7 µM |
| CCCCCCCCCCCCCCCCCCNC(=O)[C@H]1CSC(c2cccs2)N1 (stereo partly specified) | 826 nM | 1.59 µM | 770 nM | 1.53 µM | 1.06 µM | 2.31 µM | 1750 nM | > 50 µM |
| COCCOCCOCc1n(Cc2ccc3ccccc3n2)c2ccccc2[n+]1Cc1ccc2ccccc2c1 | 356 nM | 1.45 µM | 339 nM | 1.31 µM | 23.4 µM | > 100 µM | 352 nM | 2.29 µM |
| CC1(C)N=C(N)N=C(N)N1c1ccc(OCC(=O)Nc2ccccc2)c(Cl)c1 | > 100000 nM | > 100 µM | 522 nM | > 100 µM | > 100 µM | > 100 µM | 123 nM | > 66.5 µM |
| C=C1CC2(OC1=O)C(=O)N(CCCN1C(=O)C3(CC(=C)C(=O)O3)c3ccccc31)c1ccccc12 (stereo unspecified) | 1650 nM | 3.43 µM | 1840 nM | 4.2 µM | 2.52 µM | 9.44 µM | 2790 nM | 10.3 µM |
| Cc1cc(Nc2nc(SCc3ccc(C(=O)Nc4ccc(F)cc4N)cc3)nn3cccc23)n[nH]1 | 854 nM | > 100 µM | – | – | 1.98 µM | > 100 µM | 355 nM | 44.2 µM |
| CCSc1nc(N)c2cn[nH]c2n1 | 20200 nM | 69.8 µM | 30800 nM | > 100 µM | 28.4 µM | 85.6 µM | 19800 nM | 63.5 µM |

From PubChem BioAssay (NCI)
